Laboratory results: US9060520B2, “Domestic animal parasite-repellent device” (priority 2007, dated 2015)

Test: Release kinetics at 38° C. in oven, by daily weighing (Examples 5-8, 10, 11)
Assay type: physicochemical

| Compound | peak of release of LINALOL relative to the bracelet, in absolute value (EVA/PEBAX matrix 30% LINALOL vs PVC bracelet 15% LINALOL, oven 38° C., FIG. 11) [times] | release as of the fourth day (EVA object with DIAZINON and GIN3, for the remaining 70%) [% per day] | amount released the first three days (EVA object with DIAZINON and GIN3 granules blended 40/60, FIG. 7) [%] |
| --- | --- | --- | --- |
| C=CC(C)(O)CCC=C(C)C (stereo not drawn) [LINALOL] | 16 |  |  |
| CCOP(=S)(OCC)Oc1cc(C)nc(C(C)C)n1 [DIAZINON] |  | 1.30 | 28 |
